Consider 2 molecules from patent US20100143935A1, “c-KIT Phosphorylation in Cancer” (Apocell, Inc., priority 2006, published 2010).

The test system of data set [1] is c-KIT phosphorylation at Y721. The data set can be described thus: Laser scanning cytometry of phospho-Y721 c-KIT in tumor biopsies before and 2 weeks after imatinib. To be noted: responder, tumor biopsy 2 weeks after treatment vs baseline. In kind it is in vivo, human. An excerpt:
FIG. 2. […] Tumor biopsies were stained by anti-phospho-Y721 c-KIT antibody followed by secondary antibody conjugated with a fluorescence probe. Laser scanning cytometry (LSC) was used to analyze the […] (MFI) across the tumor biopsies.
FIG. 3. […] (Top panels), Tumor biopsies obtained from the responder at baseline and 2 weeks after treatment (Post-treatment) were stained by anti-phospho-Y721 c-KIT antibody followed by secondary antibody conjugated with a fluorescence probe. Representative images are shown. The tumor sample stained only by the secondary antibody serves as a negative control. (Bottom panels), LSC was used to analyze the intensity of the phospho-Y721 of c-KIT (Cy5) across the entire cross section of tumor biopsies.
For c-KIT phosphorylation, tumor biopsies obtained at baseline (pre-treatment) and during the second week of treatment (post-treatment) were assayed. […] We also examined the levels of phospho-Y703.

In data set [2] the test system is endothelial and tumor cells. The data set can be described thus: CD31-TUNEL dual immunofluorescence of tumor biopsies before and 2 weeks after imatinib. To be noted: for apoptosis of endothelial and tumor cells: responder, after 2 weeks of imatinib treatment. In kind it is in vivo, human. An excerpt:
FIG. 4. […] The stained samples were further analyzed for apoptotic cells by TUNEL assay (green). Representative images are shown. The corresponding CD31 and TUNEL images are merged (Composite).

Data set [3] deals with MeWo stable cell lines expressing PK or with PTP knock down. The data set can be described thus: Imatinib sensitivity of stable MeWo cell lines expressing PK or with PTP knock down. In kind it is cell-based, human. Conditions: PK-expressing or PTP knock down lines vs empty vector control cells.
Another data set has as its system melanoma. Conditions: 800 mg/day; 26 patients; cited from earlier work.
For the next data set, the target named is T1, Phospho-c-KIT (Y721) (Homo sapiens, UniProt P10721).
T1 construct: GIST Patients Treated with Sunitinib; from tissue; host or cells: tumour material of GIST patients treated with sunitinib
T1 sequence (P10721 26-976): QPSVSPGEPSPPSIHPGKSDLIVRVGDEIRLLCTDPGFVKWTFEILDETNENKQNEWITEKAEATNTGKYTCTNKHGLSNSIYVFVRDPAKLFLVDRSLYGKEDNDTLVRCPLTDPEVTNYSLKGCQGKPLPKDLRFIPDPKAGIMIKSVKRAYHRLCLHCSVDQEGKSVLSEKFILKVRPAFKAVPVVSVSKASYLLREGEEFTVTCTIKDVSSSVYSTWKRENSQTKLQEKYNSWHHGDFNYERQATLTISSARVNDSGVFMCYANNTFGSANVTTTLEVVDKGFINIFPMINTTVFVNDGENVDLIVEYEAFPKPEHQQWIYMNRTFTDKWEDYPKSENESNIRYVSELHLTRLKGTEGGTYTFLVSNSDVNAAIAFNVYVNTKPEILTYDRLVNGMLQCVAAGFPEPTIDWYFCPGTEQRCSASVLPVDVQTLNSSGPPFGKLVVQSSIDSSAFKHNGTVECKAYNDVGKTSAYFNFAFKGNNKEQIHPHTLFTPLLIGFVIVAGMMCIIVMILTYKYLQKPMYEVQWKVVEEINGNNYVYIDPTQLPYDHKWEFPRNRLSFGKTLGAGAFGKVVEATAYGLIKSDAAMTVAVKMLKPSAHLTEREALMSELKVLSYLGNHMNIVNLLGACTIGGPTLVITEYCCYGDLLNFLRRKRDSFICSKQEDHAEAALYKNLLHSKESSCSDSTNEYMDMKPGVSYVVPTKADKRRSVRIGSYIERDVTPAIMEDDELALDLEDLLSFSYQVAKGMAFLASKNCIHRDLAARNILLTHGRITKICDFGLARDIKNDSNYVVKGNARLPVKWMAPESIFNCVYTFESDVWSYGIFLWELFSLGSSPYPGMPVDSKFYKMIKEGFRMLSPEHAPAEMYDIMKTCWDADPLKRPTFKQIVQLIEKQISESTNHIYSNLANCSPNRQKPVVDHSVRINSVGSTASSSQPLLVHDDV
The data set can be described thus: c-KIT phosphorylation (Y721) in GIST patients treated with sunitinib. In kind it is in vivo.

The next data set has as its target T2, Phospho-c-KIT (Y703) (Homo sapiens, UniProt P10721).
T2 construct: GIST Patients Treated with Sunitinib; from tissue; host or cells: tumour material of GIST patients treated with sunitinib
The data set can be described thus: c-KIT phosphorylation (Y703) in GIST patients treated with sunitinib. In kind it is in vivo.

SMILES strings stand for the structures. Entries after “also recorded” stand apart in the source; their conditions may differ.

T2 sequence (P10721 26-976): as above

Regarding `Cc1ccc(NC(=O)c2ccc(CN3CCN(C)CC3)cc2)cc1Nc1nccc(-c2cccnc2)n1` [Imatinib], the “levels of phospho-Y721 of c-KIT after imatinib treatment” value in data set [1] is “inhibits”; in data set [1] (listed as imatinib), “significantly reduced; also recorded: significant inhibition”. Moreover, in data set [2] (nonresponding patients' tumors), the “increase of apoptotic endothelial and tumor cells” value is “not seen”. The “apoptosis of endothelial and tumor cells” value in data set [2] was “induces”; in data set [2] (listed as imatinib), “higher levels of apoptosis; also recorded: substantial increase”. Also, in data set [3], the “sensitivity to imatinib-induced growth inhibition and apoptosis” value is “more sensitive”. The toxicity entry in the data set on melanoma was “significant toxicity”.

As for `CCN(CC)CCNC(=O)c1c(C)[nH]c(/C=C2\C(=O)Nc3ccc(F)cc32)c1C` [Sunitinib, N-[2-(diethylamino)ethyl]-5-[(Z)-(5-fluoro-2-oxo-1,2-dihydro-3H-indol-3-ylidene)methyl]-2,4-dimethyl-1H-pyrrole-3-carboxamide], the “Phospho-c-KIT (Y721) change” value on Phospho-c-KIT (Y721) (NON-Responder) is listed as 117% increase; at Phospho-c-KIT (Y721) (Responder), 94% decrease. Further, the “Phospho-c-KIT (Y703) change” value at Phospho-c-KIT (Y703) (NON-Responder) is on record as 45% increase; on Phospho-c-KIT (Y703) (Responder), 57% decrease.
